Results reported in paper PMC8524670 (Pharmacology Research & Perspectives, 2021).

Legend:
[1] = target: T1, OCT2 (Homo sapiens, UniProt O15244); test: SLC inhibition assay in HEK293 cells; format: in vitro ADME
T1 sequence (O15244 1-555): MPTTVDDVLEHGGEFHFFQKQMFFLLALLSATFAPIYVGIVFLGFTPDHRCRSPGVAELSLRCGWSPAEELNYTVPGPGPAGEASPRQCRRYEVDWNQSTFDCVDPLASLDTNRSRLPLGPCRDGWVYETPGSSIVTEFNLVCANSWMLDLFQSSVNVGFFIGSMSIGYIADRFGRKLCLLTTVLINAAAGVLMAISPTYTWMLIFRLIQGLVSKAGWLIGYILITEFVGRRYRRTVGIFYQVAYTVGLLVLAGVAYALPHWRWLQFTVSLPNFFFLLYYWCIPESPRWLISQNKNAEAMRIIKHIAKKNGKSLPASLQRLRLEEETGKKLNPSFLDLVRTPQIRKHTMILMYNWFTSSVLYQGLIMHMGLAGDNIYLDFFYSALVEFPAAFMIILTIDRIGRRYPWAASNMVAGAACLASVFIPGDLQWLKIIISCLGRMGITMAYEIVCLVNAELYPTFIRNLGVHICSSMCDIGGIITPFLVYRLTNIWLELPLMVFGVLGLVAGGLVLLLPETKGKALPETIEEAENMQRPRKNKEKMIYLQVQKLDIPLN

[2] = target: T2, CYP2C8 (Homo sapiens, UniProt P10632); test: Time-dependent CYP inhibition in HLMs; settings: 10 µM zanubrutinib, 30 min pre-incubation with HLMs and NADPH
T2 sequence (P10632 1-490): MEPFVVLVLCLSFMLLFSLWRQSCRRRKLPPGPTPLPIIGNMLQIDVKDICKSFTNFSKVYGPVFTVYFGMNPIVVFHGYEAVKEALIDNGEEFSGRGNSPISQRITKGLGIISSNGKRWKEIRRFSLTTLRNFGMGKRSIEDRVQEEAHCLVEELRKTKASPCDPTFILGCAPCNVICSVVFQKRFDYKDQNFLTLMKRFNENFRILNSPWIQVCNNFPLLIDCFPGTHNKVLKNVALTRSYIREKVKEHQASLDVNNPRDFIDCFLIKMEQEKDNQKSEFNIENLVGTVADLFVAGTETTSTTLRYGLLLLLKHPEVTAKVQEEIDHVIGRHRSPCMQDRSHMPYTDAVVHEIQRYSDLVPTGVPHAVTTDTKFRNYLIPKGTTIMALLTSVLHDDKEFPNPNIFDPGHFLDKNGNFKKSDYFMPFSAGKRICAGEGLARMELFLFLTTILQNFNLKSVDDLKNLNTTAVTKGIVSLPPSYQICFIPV

[3] = human, HEK293 cells overexpressing OCT2 (and MOCK cells), probe metformin

Compound: C=CC(=O)N1CCC([C@@H]2CCNc3c(C(N)=O)c(-c4ccc(Oc5ccccc5)cc4)nn32)CC1 [zanubrutinib]
- IC50 [1]: ~4.5 µM
- activity at 0.05 µM [1, 3]: 107 ± 10%
- activity at 0.2 µM [1, 3]: 339 ± 5.7%
- activity at 1 µM [1, 3]: 178 ± 36%
- activity at 5 µM [1, 3]: 48.4 ± 5.2%
- Inhibitor status ([1]; up to 5.0 μM): marginal inhibitor
- Percent loss of enzymatic activity [2]: 21.9%
